Earlier results, collected in patent US20100135914A1, “AZEOTROPIC FUMIGANT COMPOSITIONS AND METHODS OF CONTROLLING PESTS” (priority 2008, published 2010).

What was measured:
[1] = tested on: maize weevil
[2] = tested on: eggs of many moths and beetles; settings: exposures of up to three days
[3] = tested on: post-embryonic stages of insects; settings: in vivo

Row | SMILES | dosage level toxic to maize weevil eggs ([1]; eggs, over 6 hours) [mg/L] | toxicity to life stages of the maize weevil ([1]; relatively short exposure periods and low temperatures) | concentration for complete kill of the egg stage [2] | toxicity to post-embryonic stages of insects [3]
1 | CI [Methyl iodide] | 2.16 | toxic to all life stages |  | 
2 | O=S(=O)(F)F [Sulfuryl fluoride] |  |  | over 50 mg/L | highly toxic
